Results as given in patent publication US7423177B2, “Carboxamide derivatives as therapeutic agents” (TransTech Pharma, Inc., priority 2001, dated 2008).

How the values were obtained:
[1] = molecular target: T1, RAGE (sRAGE) binding to Carboxymethyl Lysine (CML) (Homo sapiens, UniProt Q15109); assay: ELISA assay: inhibition of sRAGE binding to plate-bound CML; settings: ligand CML coated on plate, concentration at which 50% signal has been inhibited
T1 construct: extracellular domain can be isolated by proteolysis of RAGE to generate soluble RAGE (sRAGE) comprised of the V and C domains
Method: (§1) This method is also described and claimed in co-pending U.S. Ser. No. 09/799,152 filed Mar. 5, 2001.
(§2) S100b, β-amyloid and CML (500 ng/100 μL/well) in 100 mM sodium bicarbonate/sodium carbonate buffer (pH 9.8) is loaded onto the wells of a NUNC Maxisorp flat bottom 96 -well microtitre plate. The plate is incubated at 4° C. overnight. The wells are aspirated and treated with 50 mM imidazole buffer saline (pH 7.2) (with 1 mM CaCl2/MgCl2) containing 1% bovine serum albumin (BSA) (300 μL/well) for two h at 37° C.
(§3) Test compounds are dissolved in nanopure water (concentration: 10-100 μM). DMSO may be used as co-solvent. 25 μL of test compound solution in 2% DMSO is added, along with 75 μL SRAGE (4.0×10^−4 mg/mL FAC) to each well and samples are incubated for 1 h at 37° C. The wells are washed 3 times with 155 mM NaCl pH 7.2 buffer saline and are soaked 10 seconds between each wash.
(§4) Non-Radioactive Binding is Performed by Adding:
(§5) 10 μL Biotinylated goat F(ab′)2 Anti-mouse IgG. (8.0×10^−4 mg/mL, FAC)
(§6) 10 μL Alk-phos-Sterptavidin (3×10^−3 mg/mL FAC)
(§7) 10 μL Polyclonal antibody for sRAGE (FAC 6.0×10^−3 mg/mL)
(§8) to 5 mL 50 mM imidazole buffer saline (pH 7.2) containing 0.2% bovine serum albumin and 1 mM […]. The mixture is incubated for 30 minutes at 37° C. 100 μL complex is added to each well and incubation is allowed to proceed at rt for 1 h. Wells are washed 3 times with wash buffer and soaked 10 s between each wash. 100 μL 1 mg/mL (pNPP) in 1 M diethanolamine (pH adjusted to 9.8 with HCl) is added. Color is allowed to develop in the dark for 1 to 2 h at rt. The reaction is quenched with 10 μL of stop solution (0.5 N NaOH in 50% ethanol) and the absorbance is measured spectrophotometrically with a microplate reader at 405 nm.

[2] = molecular target: T2, RAGE (sRAGE) binding to S100b (Homo sapiens, UniProt Q15109); assay: ELISA assay: inhibition of sRAGE binding to plate-bound S100b; settings: ligand S100b coated on plate, concentration at which 50% signal has been inhibited, read-out: ELISA Assay IC50 (μM) S-100b
T2 construct: extracellular domain can be isolated by proteolysis of RAGE to generate soluble RAGE (sRAGE) comprised of the V and C domains
Method: as §1, §2, §3, §4, §5, §6, §7, §8

[3] = molecular target: T3, RAGE (sRAGE) binding to β-amyloid (Homo sapiens, UniProt Q15109); assay: ELISA assay: inhibition of sRAGE binding to plate-bound β-amyloid; settings: ligand β-amyloid coated on plate, concentration at which 50% signal has been inhibited
T3 construct: extracellular domain can be isolated by proteolysis of RAGE to generate soluble RAGE (sRAGE) comprised of the V and C domains
Method: as §1, §2, §3, §4, §5, §6, §7, §8

T3 sequence (Q15109 23-342 limits assumed): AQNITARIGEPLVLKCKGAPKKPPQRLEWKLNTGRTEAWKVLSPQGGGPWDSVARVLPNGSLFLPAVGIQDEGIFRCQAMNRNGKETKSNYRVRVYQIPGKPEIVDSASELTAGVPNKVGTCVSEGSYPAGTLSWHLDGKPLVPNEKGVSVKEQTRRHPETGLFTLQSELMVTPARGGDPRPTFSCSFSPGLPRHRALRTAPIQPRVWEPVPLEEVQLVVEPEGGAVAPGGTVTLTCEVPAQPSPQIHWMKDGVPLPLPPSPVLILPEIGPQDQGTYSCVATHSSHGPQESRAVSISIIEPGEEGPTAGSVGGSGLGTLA
T1 sequence (Q15109 23-342 limits assumed): as above
T2 sequence (Q15109 23-342 limits assumed): as above

SMILES	IC50 [1] [µM]	IC50 [2] [µM]	IC50 [3] [µM]
CCN(CC)CCCOc1ccc(NC(=O)CC(N)c2ccc(OC(C)(C)C)cc2)c(OCCCN(CC)CC)c1 (stereo not drawn) [Example 9, 3-amino-3-(4-tert-butoxyphenyl)propionic Acid 2,4-Di-(3-diethylaminopropoxy)anline Amide]	1 to 5	1 to 5	1 to 5
CCCCN(C(=O)[C@H](N)Cc1ccc(OCc2ccccc2)cc1)c1cccc(OCCCN(CC)CC)c1 [Example 21, (2R)-2-amino-3-[4-(benzyloxy)phenyl]propionic Acid 3-(3-diethylaminopropoxy)-N-butylaniline Amide]	1 to 5	1 to 5	1 to 5
CCCCOc1cc(OCCCN(CC)CC)ccc1NC(=O)C(CC1CCCN(C(=O)OC(C)(C)C)C1)NC(=O)OCC1c2ccccc2-c2ccccc21 (stereo not drawn) [Example 29, 3-(Tert-butoxycarbonylpiperidin-3-yl)-2-(9-fluorenylmethoxycarbonylamino)propionic Acid 4-Diethylaminopropoxy-2-butoxyaniline Amide]	1 to 5	1 to 5	1 to 5
CCCCOc1cc(OCCCN(CC)CC)ccc1NC(=O)C(CC1CCN(C(=O)OC(C)(C)C)CC1)NC(=O)OCC1c2ccccc2-c2ccccc21 (stereo not drawn) [Example 22, 3-(1-Tert-butoxycarbonylpiperidin-4-yl)-2-(9-fluorenylmethoxycarbonylamino)propionic Acid 4-Diethylaminopropoxy-2-butoxyaniline Amide]	0.5 to 1	1 to 5	0.5 to 1
CCN(CC)CCCOc1ccc(N(CC2CCCCC2)C(=O)[C@H](N)Cc2ccc(OCc3ccccc3)cc2)cc1 [Example 16, (2R)-2-amino-3-[4-(benzyloxy)phenyl]propionic Acid 4-(3-diethylaminopropoxy)-N-cyclohexylmethylaniline Amide]	1 to 5	1 to 5	1 to 5
CCN(CC)CCCOc1ccc(N(CC2CCCC2)C(=O)[C@@H](Cc2ccc(OCc3ccccc3)cc2)NC(=O)OC(C)(C)C)cc1 [Example 14, (2R)-2-tert-butoxycarbonylamino-3-[4-(benzyloxy)phenyl]propionic Acid 4-(3-diethylaminopropoxy)-N-cyclopentylmethylaniline Amide]	1 to 5	1 to 5	1 to 5
CCCCOc1cc(OCCCN(CC)CC)ccc1NC(=O)C(N)CC1CCN(Cc2ccccc2)CC1 (stereo not drawn) [Example 25, 3-(1-Benzylpiperidin-4-yl)-2-aminopropionic Acid 4-Diethylaminopropoxy-2-butoxyaniline Amide]	10 to 20	5 to 10	10 to 20
